Measured values as given in patent publication US20230129359A1, “MUSCARINIC RECEPTOR 4 ANTAGONISTS AND METHODS OF USE” (Neurocrine Biosciences, Inc., priority 2020, published 2023).

Target: T1, human M4 receptor (Homo sapiens, UniProt P08173)
T1 construct: expressed in transfected cells; host or cells: CHO cells
T1 sequence (P08173 1-479): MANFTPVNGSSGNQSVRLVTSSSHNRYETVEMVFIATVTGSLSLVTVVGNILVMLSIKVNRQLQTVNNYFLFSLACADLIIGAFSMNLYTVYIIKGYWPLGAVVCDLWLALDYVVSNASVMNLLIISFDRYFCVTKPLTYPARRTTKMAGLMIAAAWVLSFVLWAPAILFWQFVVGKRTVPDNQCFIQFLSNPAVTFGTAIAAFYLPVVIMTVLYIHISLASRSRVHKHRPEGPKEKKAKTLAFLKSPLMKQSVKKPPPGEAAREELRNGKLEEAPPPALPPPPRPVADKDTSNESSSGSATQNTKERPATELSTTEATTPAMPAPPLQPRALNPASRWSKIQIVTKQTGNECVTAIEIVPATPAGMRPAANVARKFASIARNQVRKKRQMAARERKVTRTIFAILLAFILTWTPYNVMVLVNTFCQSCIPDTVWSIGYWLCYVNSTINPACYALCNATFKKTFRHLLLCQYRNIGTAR
Test: Radioligand ([3H]N-methylscopolamine) binding assay, membranes from CHO cells expressing human M4 receptor
Conditions: Ki against human M4 receptor; membranes from CHO cells; tritiated N-methylscopolamine 1.5 nM; read-out: K
Procedure, shortened: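 Competition binding used CHO-cell membranes expressing human M4 with 1.5 nM [3H]N-methylscopolamine and twelve compound concentrations ([…]). Incubation was 90 minutes at 37 °C in 50 mM HEPES, 100 mM NaCl, 5 mM MgCl2, 1 mM EDTA, pH 7.4. Bound ligand was collected by filtration onto PEI-treated glass fibre for Ki.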

Question: With C[C@@H]1CN(c2nc3ccc(C(F)(F)F)cc3s2)C[C@H](C)N1C(=O)OC1CC2(C1)CN(Cc1ccncc1)C2 [Compound 416, 2-(pyridin-4-ylmethyl)-2-azaspiro[3.3]heptan-6-yl (2R,6)S-2,6-dimethyl-4-[6-(trifluoromethyl)-1,3-benzothiazol-2-yl]piperazine-1-carboxylate] as the compound, how does the Ki read?
Answer: < 10 nM

Question: Which Ki does the source give for C[C@@H]1CN(c2ncc3ccccc3n2)C[C@H](C)N1C(=O)OC1CC2(C1)CN(Cc1ccncc1)C2 [Compound 421, 2-(pyridin-4-ylmethyl)-2-azaspiro[3.3]heptan-6-yl (2R,6S)-2,6-dimethyl-4-(quinazolin-2-yl)piperazine-1-carboxylate] here?
Answer: 100 to 1000 nM

Question: For C[C@@H]1CN(c2nc3ccc(C(F)(F)F)cc3o2)C[C@H](C)N1C(=O)OC1CC2(C1)CN(Cc1ccccc1)C2 [Compound 428, 2-benzyl-2-azaspiro[3.3]heptan-6-yl (2R,6S)-2,6-dimethyl-4-[6-(trifluoromethyl)-1,3-benzoxazol-2-yl]piperazine-1-carboxylate], which Ki is on record?
Answer: < 10 nM

Question: Which Ki does the source give for C[C@@H]1CN(c2nc3ccc(C(F)(F)F)cc3o2)C[C@@H](C)N1C(=O)OC1CC2(C1)CN(Cc1ccccc1)C2 [Compound 429, 2-benzyl-2-azaspiro[3.3]heptan-6-yl (2R,6R)-2,6-dimethyl-4-[6-(trifluoromethyl)-1,3-benzoxazol-2-yl]piperazine-1-carboxylate] here?
Answer: 10 to 100 nM

Question: Which Ki does the source give for C[C@@H]1CN(c2nc3ccc(C(F)(F)F)cc3o2)[C@@H](C)CN1C(=O)OC1CC2(C1)CN(Cc1ccccc1)C2 [Compound 430, 2-benzyl-2-azaspiro[3.3]heptan-6-yl (2R,5S)-2,5-dimethyl-4-[6-(trifluoromethyl)-1,3-benzoxazol-2-yl]piperazine-1-carboxylate] here?
Answer: < 10 nM

Question: How did the Ki turn out when C[C@@H]1CN(c2nc3ncc(C(F)(F)F)cc3s2)C[C@H](C)N1C(=O)OC1CC2(C1)CN(Cc1ccccc1)C2 [Compound 431, 2-benzyl-2-azaspiro[3.3]heptan-6-yl (2R,6S)-2,6-dimethyl-4-[6-(trifluoromethyl)-[1,3]thiazolo[4,5-b]pyridin-2-yl]piperazine-1-carboxylate] was run?
Answer: 10 to 100 nM

Question: C[C@@H]1CN(c2nc3ncc(C(F)(F)F)cc3s2)C[C@@H](C)N1C(=O)OC1CC2(C1)CN(Cc1ccccc1)C2 [Compound 432, 2-benzyl-2-azaspiro[3.3]heptan-6-yl (2R,6R)-2,6-dimethyl-4-[6-(trifluoromethyl)-[1,3]thiazolo[4,5-b]pyridin-2-yl]piperazine-1-carboxylate] was tested. Which Ki did it give?
Answer: 10 to 100 nM

Question: Which Ki does the source give for C[C@@H]1CN(c2nc3ncc(C(F)(F)F)cc3s2)[C@@H](C)CN1C(=O)OC1CC2(C1)CN(Cc1ccccc1)C2 [Compound 433, 2-benzyl-2-azaspiro[3.3]heptan-6-yl (2R,5S)-2,5-dimethyl-4-[6-(trifluoromethyl)-[1,3]thiazolo[4,5-b]pyridin-2-yl]piperazine-1-carboxylate] here?
Answer: 10 to 100 nM

Question: For C[C@@H]1CN(c2nc3ccc(C#N)cc3s2)[C@@H](C)CN1C(=O)OC1CC2(C1)CN(Cc1ccccc1)C2 [Compound 435, 2-benzyl-2-azaspiro[3.3]heptan-6-yl (2R,5S)-4-(6-cyano-1,3-benzothiazol-2-yl)-2,5-dimethylpiperazine-1-carboxylate], which Ki is on record?
Answer: 100 to 1000 nM

Question: With O=C(OC1CC2(C1)CN(Cc1ccccc1)C2)N1C2COCC1CN(c1nc3ccc(C(F)(F)F)cc3s1)C2 [Compound 437, 2-benzyl-2-azaspiro[3.3]heptan-6-yl 7-[6-(trifluoromethyl)-1,3-benzothiazol-2-yl]-3-oxa-7,9-diazabicyclo[3.3.1]nonane-9-carboxylate] as the compound, how does the Ki read?
Answer: 10 to 100 nM

Question: Which Ki does the source give for C[C@@H]1CN(c2nc3cc(F)ccc3s2)C[C@H](C)N1C(=O)OC1CC2(C1)CN(Cc1ccccc1)C2 [Compound 438, 2-benzyl-2-azaspiro[3.3]heptan-6-yl (2R,6S)-4-(5-fluoro-1,3-benzothiazol-2-yl)-2,6-dimethylpiperazine-1-carboxylate] here?
Answer: < 10 nM

Question: C[C@@H]1CN(c2nc3cc(F)ccc3s2)C[C@@H](C)N1C(=O)OC1CC2(C1)CN(Cc1ccccc1)C2 [Compound 439, 2-benzyl-2-azaspiro[3.3]heptan-6-yl (2R,6R)-4-(5-fluoro-1,3-benzothiazol-2-yl)-2,6-dimethylpiperazine-1-carboxylate] was tested. Which Ki did it give?
Answer: 10 to 100 nM

Question: For C[C@@H]1CN(c2nc3cc(F)ccc3s2)[C@@H](C)CN1C(=O)OC1CC2(C1)CN(Cc1ccccc1)C2 [Compound 440, 2-benzyl-2-azaspiro[3.3]heptan-6-yl (2R,5S)-4-(5-fluoro-1,3-benzothiazol-2-yl)-2,5-dimethylpiperazine-1-carboxylate], which Ki is on record?
Answer: < 10 nM

Question: C[C@@H]1CN(c2nc3cc(F)ccc3o2)C[C@H](C)N1C(=O)OC1CC2(C1)CN(Cc1ccccc1)C2 [Compound 441, 2-benzyl-2-azaspiro[3.3]heptan-6-yl (2R,6S)-4-(5-fluoro-1,3-benzoxazol-2-yl)-2,6-dimethylpiperazine-1-carboxylate] was tested. Which Ki did it give?
Answer: 10 to 100 nM

Question: For C[C@@H]1CN(c2nc3cc(F)ccc3o2)C[C@@H](C)N1C(=O)OC1CC2(C1)CN(Cc1ccccc1)C2 [Compound 442, 2-benzyl-2-azaspiro[3.3]heptan-6-yl (2R,6R)-4-(5-fluoro-1,3-benzoxazol-2-yl)-2,6-dimethylpiperazine-1-carboxylate], which Ki is on record?
Answer: 100 to 1000 nM

Question: With C[C@@H]1CN(c2nc3cc(F)ccc3o2)[C@@H](C)CN1C(=O)OC1CC2(C1)CN(Cc1ccccc1)C2 [Compound 443, 2-benzyl-2-azaspiro[3.3]heptan-6-yl (2R,5S)-4-(5-fluoro-1,3-benzoxazol-2-yl)-2,5-dimethylpiperazine-1-carboxylate] as the compound, how does the Ki read?
Answer: 10 to 100 nM

Question: C[C@@H]1CN(c2nc3ccc(F)cc3o2)C[C@H](C)N1C(=O)OC1CC2(C1)CN(Cc1ccccc1)C2 [Compound 444, 2-benzyl-2-azaspiro[3.3]heptan-6-yl (2R,6S)-4-(6-fluoro-1,3-benzoxazol-2-yl)-2,6-dimethylpiperazine-1-carboxylate] was tested. Which Ki did it give?
Answer: 10 to 100 nM

Question: For C[C@@H]1CN(c2nc3ccc(F)cc3o2)C[C@@H](C)N1C(=O)OC1CC2(C1)CN(Cc1ccccc1)C2 [Compound 445, 2-benzyl-2-azaspiro[3.3]heptan-6-yl (2R,6R)-4-(6-fluoro-1,3-benzoxazol-2-yl)-2,6-dimethylpiperazine-1-carboxylate], which Ki is on record?
Answer: 10 to 100 nM

Question: With C[C@@H]1CN(c2nc3ccc(F)cc3o2)[C@@H](C)CN1C(=O)OC1CC2(C1)CN(Cc1ccccc1)C2 [Compound 446, 2-benzyl-2-azaspiro[3.3]heptan-6-yl (2R,5S)-4-(6-fluoro-1,3-benzoxazol-2-yl)-2,5-dimethylpiperazine-1-carboxylate] as the compound, how does the Ki read?
Answer: 10 to 100 nM

Question: Which Ki does the source give for C[C@@H]1CN(c2nc3cc(F)c(F)cc3s2)C[C@H](C)N1C(=O)OC1CC2(C1)CN(Cc1ccccc1)C2 [Compound 447, 2-benzyl-2-azaspiro[3.3]heptan-6-yl (2R,6S)-4-(5,6-difluoro-1,3-benzothiazol-2-yl)-2,6-dimethylpiperazine-1-carboxylate] here?
Answer: < 10 nM

Question: C[C@@H]1CN(c2nc3cc(F)c(F)cc3s2)[C@@H](C)CN1C(=O)OC1CC2(C1)CN(Cc1ccccc1)C2 [Compound 449, 2-benzyl-2-azaspiro[3.3]heptan-6-yl (2R,5S)-4-(5,6-difluoro-1,3-benzothiazol-2-yl)-2,56-dimethylpiperazine-1-carboxylate] was tested. Which Ki did it give?
Answer: < 10 nM

Question: For C[C@@H]1CN(c2ncc3cc(F)ccc3n2)C[C@H](C)N1C(=O)OC1CC2(C1)CN(Cc1ccccc1)C2 [Compound 453, 2-benzyl-2-azaspiro[3.3]heptan-6-yl (2R,6S)-4-(6-fluoroquinazolin-2-yl)-2,6-dimethylpiperazine-1-carboxylate], which Ki is on record?
Answer: 10 to 100 nM

Question: With C[C@@H]1CN(c2ncc(C(F)(F)F)cn2)C[C@H](C)N1C(=O)OC1CC2(C1)CN(Cc1ccc(F)cc1)C2 [Compound 455, 2-[(4-fluorophenyl)methyl]-2-azaspiro[3.3]heptan-6-yl (2R,6S)-2,6-dimethyl-4-[5-(trifluoromethyl)pyrimidin-2-yl]piperazine-1-carboxylate] as the compound, how does the Ki read?
Answer: 10 to 100 nM

Question: Which Ki does the source give for C[C@@H]1CN(c2ncc(C(F)(F)F)cn2)[C@@H](C)CN1C(=O)OC1CC2(C1)CN(Cc1ccc(F)cc1)C2 [Compound 456, 2-[(4-fluorophenyl)methyl]-2-azaspiro[3.3]heptan-6-yl (2R,5S)-2,5-dimethyl-4-[5-(trifluoromethyl)pyrimidin-2-yl]piperazine-1-carboxylate] here?
Answer: < 10 nM

Question: How did the Ki turn out when C[C@@H]1CN(c2ncc(C(F)(F)F)cn2)CCN1C(=O)OC1CC2(C1)CN(Cc1ccc(F)cc1)C2 [Compound 457, 2-[(4-fluorophenyl)methyl]-2-azaspiro[3.3]heptan-6-yl (2R)-2-methyl-4-[5-(trifluoromethyl)pyrimidin-2-yl]piperazine-1-carboxylate] was run?
Answer: 100 to 1000 nM

Question: For C[C@@H]1CN(c2cnc(C(F)(F)F)cn2)CCN1C(=O)OC1CC2(C1)CN(Cc1ccc(F)cc1)C2 [Compound 458, 2-[(4-fluorophenyl)methyl]-2-azaspiro[3.3]heptan-6-yl (2R)-2-methyl-4-[5-(trifluoromethyl)pyrazin-2-yl]piperazine-1-carboxylate], which Ki is on record?
Answer: 10 to 100 nM

Question: C[C@@H]1CN(c2ncc(OC(F)F)cn2)C[C@H](C)N1C(=O)OC1CC2(C1)CN(Cc1ccccc1)C2 [Compound 462, 2-benzyl-2-azaspiro[3.3]heptan-6-yl (2R,6S)-4-[5-(difluoromethoxy)pyrimidin-2-yl]-2,6-dimethylpiperazine-1-carboxylate] was tested. Which Ki did it give?
Answer: < 10 nM
